The subject of assay [1] is HepG2. Briefly: STAT-responsive luciferase reporter in HepG2 cells without transfected receptor. In kind it is cell-based, human. The conditions noted are these: HepG2 transfected with STAT-responsive luciferase reporter only, no TPO receptor. As for the experimental part:
(§1) International Application No. PCT/US99/30371, published as WO 00/35446 on Jun. 22, 2000, discloses that the TPO receptor can be activated by small molecule ligands of Formula (I).
(§2) In determining the efficacy and potency of the presently invented compounds as agonists of dimeric cell-surface receptors, a luciferase reporter gene assay configured in HepG2 cells was utilized (see Tian et al., Science 1998, 281, 257-259).
HepG2 cells were plated in 24-well plates in triplicates for overnight. The cells were then transfected with the indicated receptor construct, a GAS response element containing luciferase reporter, 8×118-TkLUC and STAT5b expression vector (a gift of Dr. James Ihle, Memphis, Tenn.) by Superfect method (QIAGEN, Valencia, Calif.) as instructed by the manufacturer. After an overnight recovery, the transfected cells were treated with 0.1% DMSO, TPO or compound of Example 4 at the indicated concentrations for 4-5 hrs. The cells were then lysed and the level of luciferase expression was measured by a plate reader.

The target of assay [2] is T1, human TPO receptor (Homo sapiens, UniProt P40238).
T1 construct: expressed in transfected cells; host or cells: HepG2
T1 sequence (P40238 26-635): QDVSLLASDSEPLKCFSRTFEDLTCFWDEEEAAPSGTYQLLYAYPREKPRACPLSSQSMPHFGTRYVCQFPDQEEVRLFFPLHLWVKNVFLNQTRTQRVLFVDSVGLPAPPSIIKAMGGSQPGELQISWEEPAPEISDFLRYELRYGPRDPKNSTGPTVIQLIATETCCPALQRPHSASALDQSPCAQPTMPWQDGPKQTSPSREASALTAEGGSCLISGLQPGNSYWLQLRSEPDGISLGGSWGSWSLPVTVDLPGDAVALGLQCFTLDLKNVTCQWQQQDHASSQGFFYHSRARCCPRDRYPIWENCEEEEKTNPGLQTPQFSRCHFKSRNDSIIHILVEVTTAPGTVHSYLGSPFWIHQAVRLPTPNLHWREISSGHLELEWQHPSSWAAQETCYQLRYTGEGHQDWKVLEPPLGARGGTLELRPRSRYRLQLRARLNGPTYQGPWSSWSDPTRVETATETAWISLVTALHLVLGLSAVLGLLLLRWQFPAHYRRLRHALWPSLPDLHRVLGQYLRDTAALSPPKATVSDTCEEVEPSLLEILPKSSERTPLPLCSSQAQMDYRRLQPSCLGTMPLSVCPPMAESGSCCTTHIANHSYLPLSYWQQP
Briefly: luciferase reporter in HepG2 cells cotransfected with human TPO receptor. The conditions noted are these: HepG2 cotransfected with human TPO receptor expression vector and reporter. In kind it is cell-based.
Excerpt: as §1, §2
Human Tpo receptor (hMPL) was cloned from HEL 92.1.7 cells (ATCC, Rockville, Md.) by PCR (forward primer: 5′-ACGAAGCTTAGCCAAGATGTCTCCTTGCTGGCAT-3′ and reverse primer: 5′-AGCCTCGAGTCAAGGCTGCTGCCAATAGCT-3′). The cloned full-length cDNA was confirmed by DNA sequencing analysis, then subcloned into HindIII-XhoI digested pSSF vector. The cynomolgous Tpo-R (cMPL) was cloned from bone marrow cDNA using the human 5′ and 3′ terminal coding sequences. The full-length cDNA was sequenced and subcloned into EcoRI digested pCDNA3. 1 (+) vector (Invitrogen, San Diego, Calif.). […]
HepG2 cells were plated in 24-well plates in triplicates for overnight. […] The cells were then lysed and the level of luciferase expression was measured by a plate reader.
(In general: Reporter assays use an easily measured gene product as a stand-in for the process of interest.)

In assay [3] the target is T2, human TPO receptor H499L (Homo sapiens, UniProt P40238, H499L).
T2 construct: expressed in transfected cells; host or cells: HepG2
T2 sequence (P40238 26-635 H499L): T1 sequence (P40238 26-635) with H474L
The experiment in a line: luciferase reporter in HepG2 cells, H499L point mutant of human TPO receptor. The following applies: H499L point mutation in the human TPO receptor. In kind it is cell-based. The text has this: (§3) To further investigate the activity of compounds of Formula (I), cDNA clones for cynomolgous monkey TPO receptor were isolated and sequenced. […] It was clear from these experiments that the compounds of Formula I show strict specificity for the human TPO receptor, a finding also confirmed by STAT activation assays of platelets from human and cyno origin. In order to examine the region of the TPO receptor required for compound activity, a series of human/cyno TPO-R chimeric receptors were transfected into HepG2 cells and tested for their response to compounds of Formula (I). […] To investigate the role of this specific transmembrane domain mutation on the activity of compounds of Formula (I), two point mutations were constructed: a) a H499L change into the human TPO receptor transmembrane domain, creating a receptor with human extracellular and cytoplasmic domains and a cyno receptor transmembrane domain and b) a L499H change into the cyno receptor transmembrane domain creating a chimera with cyno extracellular and cytoplasmic domains and a human transmembrane domain. […] Conversely, the L499H mutation in the cyno TPO receptor allowed it to be activated by both TPO and the compounds with potencies and efficacies similar to those seen on wild type human receptor. […]

Assay [4] has as its system cyno TPO receptor L499H. The experiment in a line: luciferase reporter in HepG2 cells, L499H point mutant of cyno TPO receptor. The following applies: L499H mutation in the cyno TPO receptor. In kind it is cell-based, cynomolgous monkey.
Excerpt: as §3

We go through one substance from patent US20040053299A1, “Regulated activation of cell-membrane receptors by metal-chelating agonists” (priority 2003, published 2004).

Where a chain is given by its changes, count along the chain named.

Consider “TPO: thrombopoietin, natural protein ligand of the TPO receptor”, for which the “response, luciferase expression” value in assay [1] is recorded as “do not respond”; in assay [2] it was “large increase in luciferase expression”. In addition, in assay [3], the receptor response entry was “little effect on the response”. In addition, the receptor activation entry in assay [4] was “activated”.
